This note sets out measurements from patent publication US10023602B2, “Hamamelitannin analogues and uses thereof” (Universiteit Gent, priority 2014, dated 2018).

Test [1] has as its system methicillin resistant S. aureus Mu50 strain (S. aureus ATCC700699) biofilm. Briefly: Biofilm susceptibility to vancomycin, pre-treatment regimen (biofilm formed in presence of compound, then vancomycin). In kind it is cell-based. The conditions noted are these: for Pretreat (100 μM): percentage Colony Forming Units (CFU's) per biofilm: compound 100 μM during biofilm formation; for EC50: concentration needed to get 50% killing compared to antibiotic alone (VAN 20 μg/ml) and complete killing, read-out: Pretreat. (EC50). An outline of the steps: (§1)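 Mu50 biofilms from 10^8 CFU/ml inoculum (4 h adhesion, then 20 h, 37 °C). Pre-treatment: compound (0.1-250 μM) present during biofilm formation, then vancomycin 20 μg/ml alone 24 h; combination: mature biofilm given vancomycin 20 μg/ml plus compound 24 h. Survivors counted by plating versus vancomycin alone.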

Test [2] has the same test system. Put plainly: Biofilm susceptibility to vancomycin, combination treatment regimen (mature biofilm treated with compound plus vancomycin). Type of test: cell-based. The conditions noted are these: for Combin. (100 μM): percentage Colony Forming Units (CFU's) per biofilm: compound 100 μM together with VAN 20 μg/ml on mature biofilm; for EC50: concentration needed to get 50% killing compared to antibiotic alone (VAN 20 μg/ml) and complete killing, read-out: Combin. (EC50). An outline of the steps: as §1

[3] abbreviates: then VAN 20 μg/ml, compared to the untreated (negative) control.
Where [4] appears, read: compared to the untreated (negative) control.

One may read the EC50 as the midpoint of the concentration-response curve.

`O=C(NC[C@]1(O)CO[C@H](CNS(=O)(=O)c2ccc(Cl)cc2)[C@H]1O)c1ccccc1` [compound 217, N-(((3S,4R,5R)-5-(((4-chlorophenyl)sulfonamido)methyl)-3,4-dihydroxytetrahydrofuran-3-yl)methyl)benzamide]: the “Pretreat (100 μM): percentage Colony Forming Units (CFU's) per biofilm” value in test [1] (setting [3]) stood at 14.04 percentage. Also, the EC50 stood at 23.5 µM in test [1] and 27.8 µM in test [2]. For the same compound, the “Combin. (100 μM): percentage Colony Forming Units (CFU's) per biofilm” value in test [2] (setting [4]) is on record as 14.85 percentage.
With `O=C(NC[C@H]1OC[C@@](O)(CNC(=O)c2ccccc2)[C@@H]1O)c1ccnnc1` [compound 207, N-(((2R,3R,4S)-4-(benzamidomethyl)-3,4-dihydroxytetrahydrofuran-2-yl)methyl)pyridazine-4-carboxamide], the “Pretreat (100 μM): percentage Colony Forming Units (CFU's) per biofilm” value in test [1] (setting [3]) came out at 6.950 percentage. The EC50 in test [1] came out at 7.28 µM; in test [2], 8.54 µM. Further, the “Combin. (100 μM): percentage Colony Forming Units (CFU's) per biofilm” value in test [2] (setting [4]) is recorded as 13.70 percentage.
For the compound `O=C(NC[C@]1(O)CO[C@H](CNC(=O)c2ccccc2I)[C@H]1O)c1ccccc1` [compound 179, N-(((2R,3R,4S)-4-(benzamidomethyl)-3,4-dihydroxytetrahydrofuran-2-yl)methyl)-2-iodobenzamide], the “Pretreat (100 μM): percentage Colony Forming Units (CFU's) per biofilm” value in test [1] (setting [3]) amounted to 3.84 percentage. Further, the values for the EC50 in test [1] and in test [2] were 1.85 µM and 20.4 µM, respectively. Further, the “Combin. (100 μM): percentage Colony Forming Units (CFU's) per biofilm” value in test [2] (setting [4]) is 16.46 percentage.
Turning to `O=C(NC[C@]1(O)CO[C@H](CNC(=O)c2ccccc2Cl)[C@H]1O)c1ccco1` [compound 246, N-(((3S,4R,5R)-5-((2-chlorobenzamido)methyl)-3,4-dihydroxytetrahydrofuran-3-yl)methyl)furan-2-carboxamide], in test [1] (compound 25 μM during biofilm formation, then VAN 20 μg/ml, compared to the untreated (negative) control), the “Pretreat. (25 μM): percentage Colony Forming Units (CFU's) per biofilm” value is recorded as 87.98 percentage. Also, in test [2] (compound 25 μM together with VAN 20 μg/ml on mature biofilm, compared to the untreated (negative) control), the “Combin. (25 μM): percentage Colony Forming Units (CFU's) per biofilm” value was 62.82 percentage.
Turning to `N#Cc1ccc(C(=O)NC[C@H]2OC[C@@](O)(CNC(=O)c3ccccc3)[C@@H]2O)cc1` [compound 155, N-(((2R,3R,4S)-4-(benzamidomethyl)-3,4-dihydroxytetrahydrofuran-2-yl)methyl)-4-cyanobenzamide], the “Pretreat (100 μM): percentage Colony Forming Units (CFU's) per biofilm” value in test [1] (setting [3]) worked out at 15.57 percentage. The “Combin. (100 μM): percentage Colony Forming Units (CFU's) per biofilm” value in test [2] (setting [4]) is 16.06 percentage.
In the case of `COc1cccc(C(=O)NC[C@H]2OC[C@@](O)(CNC(=O)c3ccccc3)[C@@H]2O)c1` [compound 163, N-(((2R,3R,4S)-4-(benzamidomethyl)-3,4-dihydroxytetrahydrofuran-2-yl)methyl)-3-methoxybenzamide], in test [1] (setting [3]), the “Pretreat (100 μM): percentage Colony Forming Units (CFU's) per biofilm” value was found to be 28.44 percentage. Besides, the “Combin. (100 μM): percentage Colony Forming Units (CFU's) per biofilm” value in test [2] (setting [4]) worked out at 27.21 percentage.
Take `CN(C)c1cccc(C(=O)NC[C@H]2OC[C@@](O)(CNC(=O)c3ccccc3)[C@@H]2O)c1` [compound 165, N-(((2R,3R,4S)-4-(benzamidomethyl)-3,4-dihydroxytetrahydrofuran-2-yl)methyl)-3-(dimethylamino)benzamide]: in test [1] (setting [3]), the “Pretreat (100 μM): percentage Colony Forming Units (CFU's) per biofilm” value is on record as 16.00 percentage. In test [2] (setting [4]), the “Combin. (100 μM): percentage Colony Forming Units (CFU's) per biofilm” value is 26.43 percentage.
Take `Cc1ccc(C(=O)NC[C@H]2OC[C@@](O)(CNC(=O)c3ccccc3)[C@@H]2O)cc1C` [compound 180, N-(((2R,3R,4S)-4-(benzamidomethyl)-3,4-dihydroxytetrahydrofuran-2-yl)methyl)-3,4-dimethylbenzamide]: the “Pretreat (100 μM): percentage Colony Forming Units (CFU's) per biofilm” value in test [1] (setting [3]) came to 79.13 percentage. Also, the “Combin. (100 μM): percentage Colony Forming Units (CFU's) per biofilm” value in test [2] (setting [4]) is given as 65.66 percentage.
Consider `O=C(NC[C@H]1OC[C@@](O)(CNC(=O)c2ccccc2)[C@@H]1O)c1ccc(-c2ccccc2)cc1` [compound 159, N-(((2R,3R,4S)-4-(benzamidomethyl)-3,4-dihydroxytetrahydrofuran-2-yl)methyl)-[1,1′-biphenyl]-4-carboxamide], for which the “Pretreat (100 μM): percentage Colony Forming Units (CFU's) per biofilm” value in test [1] (setting [3]) was 10.97 percentage. Further, the figures for the EC50 in test [1] and in test [2] were 6.38 µM and 11.3 µM, respectively. For the same compound, in test [2] (setting [4]), the “Combin. (100 μM): percentage Colony Forming Units (CFU's) per biofilm” value was determined as 6.966 percentage.
